From patent publication US10918642B2, “N-(substituted-phenyl)-sulfonamide derivatives as kinase inhibitors” (Nerviano Medical Sciences S.R.L., priority 2016, dated 2021)

target: PERK recombinant enzyme (cytoplasmic domain corresponding to residues 540-1115) (Homo sapiens (Human), UniProt Q9NZJ5); test: PERK enzyme assay, Method 1: ADP-Glo Kinase Assay (quantification of ADP formed); assay type: biochemical; settings: 52 microM ATP, 8 nM PERK, 300 microM eIF2alpha peptide substrate, 60 minutes at room temperature
Description: The biochemical activity of compounds was determined by incubation with PERK recombinant enzyme (cytoplasmic domain corresponding to residues 540-1115) and elF2alpha peptide substrate (Aminoacid sequence: LLSELSRRRIRSINK—SEQ ID Nr: 1; purchased from American Peptide Company, product #341923). This was followed by:
Method 1: Quantification of the ADP Tormed from the Kinase Reaction by ADP-Glo™ Kinase Assay (Promega Cat. 9102). Utra Pure ATP was Included into ADP-Glo™ Kinase Assay kit.
Compounds were 3-fold serially diluted in order to obtain from 3.333 to 0.000169 microM final concentration, then incubated for 60 minutes at room temperature in the presence of ATP, substrate and enzyme in a final volume of 15 microL of kinase buffer in 384-well plates (Perkin Elmer cat. #6007290).
The final concentration of the different reagents is 52 microM ATP, 8 nM PERK, 300 microM substrate, 50 mM Hepes pH 7.5, 3 mM MgCl2, 1 mM DTT, 3 microM Na3VO4, 0.2 mg/ml BSA, 1% DMSO.
After 60 minutes, an equal volume (15 microL) of ADP-Glo™ Reagent was added to each well to terminate the kinase reaction and deplete the remaining ATP. After 40 minutes, 30 microL of Kinase Detection Reagent is added, which simultaneously converts ADP to ATP and allows the newly synthesized ATP to be measured using a coupled luciferase/luciferin reaction. After further 40 minutes luminescence was read by ViewLux Instrument (Perkin Elmer). The data are analyzed by GraphPad Prism software which provides sigmoidal fittings of the curves for IC50 determination using a 4 parameter logistic equation: y=bottom+(top−bottom)/(1+10^((log IC50−x)*slope))
where x is the logarithm of the inhibitor concentration, y is the response; y starts at bottom and goes to top with a sigmoid shape.

Chain of PERK recombinant enzyme (cytoplasmic domain corresponding to residues 540-1115) (Q9NZJ5 540-1115): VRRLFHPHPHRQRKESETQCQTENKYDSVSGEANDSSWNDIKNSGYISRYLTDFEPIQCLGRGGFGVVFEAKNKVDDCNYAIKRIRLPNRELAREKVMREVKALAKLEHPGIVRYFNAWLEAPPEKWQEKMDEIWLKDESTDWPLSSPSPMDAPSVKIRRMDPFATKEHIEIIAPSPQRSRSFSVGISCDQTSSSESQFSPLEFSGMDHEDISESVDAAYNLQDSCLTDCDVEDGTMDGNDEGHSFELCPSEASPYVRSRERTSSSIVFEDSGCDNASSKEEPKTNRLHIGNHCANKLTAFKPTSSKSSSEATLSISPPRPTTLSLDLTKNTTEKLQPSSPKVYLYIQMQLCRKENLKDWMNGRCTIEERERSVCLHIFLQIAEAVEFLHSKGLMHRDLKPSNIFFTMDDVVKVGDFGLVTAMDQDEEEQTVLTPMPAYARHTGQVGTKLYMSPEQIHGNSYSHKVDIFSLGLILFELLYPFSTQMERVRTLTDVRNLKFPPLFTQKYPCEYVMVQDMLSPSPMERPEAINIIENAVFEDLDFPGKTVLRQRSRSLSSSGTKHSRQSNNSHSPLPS

| SMILES | pIC50 | IC50 |
| --- | --- | --- |
| CCN1CCC(n2cc(-c3cccc(NS(=O)(=O)c4ccc(OC)c(C)c4)c3F)c3c(N)ncnc32)CC1 [cmpd 41, N-{3-[4-Amino-7-(1-ethyl-piperidin-4-yl)-7H-pyrrolo[2,3-d]pyrimidin-5-yl]-2-fluoro-phenyl}-4-methoxy-3-methyl-benzenesulfonamide] |  | 15.8 to 50.1 nM |
| CN1CCOc2cc(S(=O)(=O)Nc3cccc(-c4cn(C)c5ncnc(N)c45)c3F)ccc21 [cmpd 18, 4-Methyl-3,4-dihydro-2H-benzo[1,4]oxazine-7-sulfonic acid [3-(4-amino-7-methyl-7H-pyrrolo[2,3-d]pyrimidin-5-yl)-2-fluoro-phenyl]-amide] |  | 50.1 to 158 nM |
| Cn1cc(-c2cccc(NS(=O)(=O)c3cc(Cl)cc(Cl)c3)c2F)c2c(N)ncnc21 [cmpd 26, N-[2-(4-Amino-7-methyl-7H-pyrrolo[2,3-d]pyrimidin-5-yl)-2-fluoro-phenyl]-3,5-dichloro-benzenesulfonamide] |  | 15.8 to 50.1 nM |
| Cn1cc(-c2cccc(NS(=O)(=O)c3ccc(Br)cc3F)c2F)c2c(N)ncnc21 [cmpd 22, N-[3-(4-Amino-7-methyl-7H-pyrrolo[2,3-d]pyrimidin-5-yl)-2-fluoro-phenyl]-4-bromo-2-fluoro-benzenesulfonamide] |  | 15.8 to 50.1 nM |
| Cn1cc(-c2cccc(NS(=O)(=O)c3cc(F)ccc3F)c2F)c2c(N)ncnc21 [cmpd 21, N-[3-(4-Amino-7-methyl-7H-pyrrolo[2,3-d]pyrimidin-5-yl)-2-fluoro-phenyl]-2,5-difluoro-benzenesulfonamide] | C (pIC50 < 6.8) |  |
| Cn1cc(-c2cccc(NS(=O)(=O)c3cccc(Cl)c3)c2F)c2c(N)ncnc21 [cmpd 13, N-[3-(4-Amino-7-methyl-7H-pyrrolo[2,3-d]pyrimidin-5-yl)-2-fluoro-phenyl]-3-chloro-benzenesulfonamide] | AA (7.8 ≤ pIC50) |  |
| Cn1cc(-c2cccc(NS(=O)(=O)c3c(F)cccc3F)c2F)c2c(N)ncnc21 [cmpd 23, N-[3-(4-Amino-7-methyl-7H-pyrrolo[2,3-d]pyrimidin-5-yl)-2-fluoro-phenyl]-2,6-difluoro-benzenesulfonamide] |  | 50.1 to 158 nM |
| COc1ccc(S(=O)(=O)Nc2cccc(-c3cn(C)c4ncnc(N)c34)c2F)cc1Br [cmpd 87, N-[3-(4-Amino-7-methyl-7H-pyrrolo[2,3-d]pyrimidin-5-yl)-2-fluoro-phenyl]-3-bromo-4-methoxy-benzenesulfonamide] | AA (7.8 ≤ pIC50) |  |
| COc1cc(F)c(S(=O)(=O)Nc2cccc(-c3cn(C)c4ncnc(N)c34)c2F)cc1Cl [cmpd 24, N-[3-(4-Amino-7-methyl-7H-pyrrolo[2,3-d]pyrimidin-5-yl)-2-fluoro-phenyl]-5-chloro-2-fluoro-4-methoxy-benzenesulfonamide] | AA (7.8 ≤ pIC50) |  |
| Cn1cc(-c2cccc(NS(=O)(=O)c3ccc(Cl)cc3F)c2F)c2c(N)ncnc21 [cmpd 85, N-[3-(4-Amino-7-methyl-7H-pyrrolo[2,3-d]pyrimidin-5-yl)-2-fluoro-phenyl]-4-chloro-2-fluoro-benzenesulfonamide] |  | 15.8 to 50.1 nM |
| COc1ccc(S(=O)(=O)Nc2cccc(-c3cn(C)c4ncnc(N)c34)c2F)cc1C [cmpd 12, N-[3-(4-Amino-7-methyl-7H-pyrrolo[2,3-d]pyrimidin-5-yl)-2-fluoro-phenyl]-4-methoxy-3-methyl-benzenesulfonamide] |  | 15.8 to 50.1 nM |
| COc1ccc(S(=O)(=O)Nc2cccc(-c3cn(C4CCN(C5CC5)CC4)c4ncnc(N)c34)c2F)cc1C [cmpd 39, N-{3-[4-Amino-7-(1-cyclopropyl-piperidin-4-yl)-7H-pyrrolo[2,3-d]pyrimidin-5-yl]-2-fluoro-phenyl}-4-methoxy-3-methyl-benzenesulfonamide] |  | 15.8 to 50.1 nM |

Results, then the compound that gave them:

| pIC50 | IC50 | SMILES |
| --- | --- | --- |
| C (pIC50 < 6.8) |  | Cn1cc(-c2cccc(NS(=O)(=O)c3ccc(OC(F)(F)F)c(Cl)c3)c2F)c2c(N)ncnc21 [cmpd 50, N-[3-(4-Amino-7-methyl-7H-pyrrolo[2,3-d]pyrimidin-5-yl)-2-fluoro-phenyl]-3-chloro-4-trifluoromethoxy-benzenesulfonamide] |
|  | 50.1 to 158 nM | Cn1cc(-c2cccc(NS(=O)(=O)c3cc(C(F)(F)F)cc(C(F)(F)F)c3)c2F)c2c(N)ncnc21 [cmpd 49, N-[3-(4-Amino-7-methyl-7H-pyrrolo[2,3-d]pyrimidin-5-yl)-2-fluoro-phenyl]-3,5-bis-trifluoromethyl-benzenesulfonamide] |
| A (7.3 ≤ pIC50 < 7.8) |  | COc1ccc(S(=O)(=O)Nc2cccc(-c3cn(C)c4ncnc(N)c34)c2F)cc1Cl [cmpd 1, N-[3-(4-Amino-7-methyl-7H-pyrrolo[2,3-d]pyrimidin-5-yl)-2-fluoro-phenyl]-3-chloro-4-methoxy-benzenesulfonamide] |
| AA (7.8 ≤ pIC50) |  | COc1cc(F)c(S(=O)(=O)Nc2cccc(-c3nn(C)c4ncnc(N)c34)c2F)cc1Cl [cmpd 9, N-[3-(4-Amino-1-methyl-1H-pyrazolo[3,4-d]pyrimidin-3-yl)-2-fluoro-phenyl]-5-chloro-2-fluoro-4-methoxy-benzenesulfonamide] |
| AA (7.8 ≤ pIC50) |  | COc1ccc(S(=O)(=O)Nc2cccc(-c3cn(C4CCN(C)CC4)c4ncnc(N)c34)c2F)cc1Cl [cmpd 4, N-{3-[4-Amino-7-(1-methyl-piperidin-4-yl)-7H-pyrrolo[2,3-d]pyrimidin-5-yl]-2-fluoro-phenyl}-3-chloro-4-methoxy-benzenesulfonamide] |
|  | 50.1 to 158 nM | COc1cc(F)c(S(=O)(=O)Nc2cccc(-c3cn(C(C)C)c4ncnc(N)c34)c2F)cc1Cl [cmpd 74, N-[3-(4-Amino-7-isopropyl-7H-pyrrolo[2,3-d]pyrimidin-5-yl)-2-fluoro-phenyl]-5-chloro-2-fluoro-4-methoxy-benzenesulfonamide] |
|  | 50.1 to 158 nM | COc1ccc(S(=O)(=O)Nc2cccc(-c3cn(C)c4ncnc(N)c34)c2F)cc1OC [cmpd 17, N-[3-(4-Amino-7-methyl-7H-pyrrolo[2,3-d]pyrimidin-5-yl)-2-fluoro-phenyl]-3,4-dimethm-benzenesulfonamide] |
|  | 15.8 to 50.1 nM | Cn1cc(-c2cccc(NS(=O)(=O)c3ccc(Br)s3)c2F)c2c(N)ncnc21 [cmpd 48, 5-Bromo-thiophene-2-sulfonic acid [3-(4-amino-7-methyl-7H-pyrrolo[2,3-d]pyrimidin-5-yl)-2-fluoro-phenyl]-amide] |
|  | 15.8 to 50.1 nM | COc1ccc(S(=O)(=O)Nc2cccc(-c3cn(C)c4ncnc(N)c34)c2F)cc1C#N [cmpd 86, N-[3-(4-Amino-7-methyl-7H-pyrrolo[2,3-d]pyrimidin-5-yl)-2-fluoro-phenyl]-3-cyano-4-methoxy-benzenesulfonamide] |
|  | 15.8 to 50.1 nM | COc1ccc(S(=O)(=O)Nc2cccc(-c3cn(C4CCOCC4)c4ncnc(N)c34)c2F)cc1Cl [cmpd 37, N-{3-[4-Amino-7-(tetrahydro-pyran-4-yl)-7H-pyrrolo[2,3-d]pyrimidin-5-yl]-2-fluoro-phenyl}-3-chloro-4-methoxy-benzenesulfonamide] |
| C (pIC50 < 6.8) |  | Cc1cc(S(=O)(=O)Nc2cccc(-c3cn(C)c4ncnc(N)c34)c2F)ccc1OC(C)C [cmpd 30, N-[3-(4-Amino-7-methyl-7H-pyrrolo[2,3-d]pyrimidin-5-yl)-2-fluoro-phenyl]-4-isopropoxy-3-methyl-benzenesulfonamide] |
|  | 50.1 to 158 nM | COc1ccc(S(=O)(=O)Nc2cccc(-c3cn(C)c4ncnc(N)c34)c2F)cn1 [cmpd 81, 6-Methoxy-pyridine-3-sulfonic acid [3-(4-amino-7-methyl-7H-pyrrolo[2,3-d]pyrimidin-5-yl)-2-fluoro-phenyl]-amide] |
|  | 15.8 to 50.1 nM | COc1ccc(S(=O)(=O)Nc2cccc(-c3cn(C4CCOCC4)c4ncnc(N)c34)c2F)cc1C [cmpd 36, N-{3-[4-Amino-7-(tetrahydro-pyran-4-yl)-7H-pyrrolo[2,3-d]pyrimidin-5-yl]-2-fluoro-phenyl}-4-methoxy-3-methyl-benzenesulfonamide] |
|  | 50.1 to 158 nM | COc1ccc(S(=O)(=O)Nc2cccc(-c3cn(C)c4ncnc(N)c34)c2F)cc1 [cmpd 14, N-[3-(4-Amino-7-methyl-7H-pyrrolo[2,3-d]pyrimidin-5-yl)-2-fluoro-phenyl]-4-methoxy-benzenesulfonamide] |
|  | 15.8 to 50.1 nM | COc1ccc(S(=O)(=O)Nc2cccc(-c3cn(C4CCN(C5CC5)CC4)c4ncnc(N)c34)c2F)cc1Cl [cmpd 5, N-{3-[4-Amino-7-(1-cyclopropyl-piperidin-4-yl)-7H-pyrrolo[2,3-d]pyrimidin-5-yl]-2-fluoro-phenyl}-3-chloro-4-methoxy-benzenesulfonamide] |
|  | 15.8 to 50.1 nM | COc1ccc(S(=O)(=O)Nc2cccc(-c3cn(C4CCN(C(C)C)CC4)c4ncnc(N)c34)c2F)cc1C [cmpd 40, N-{3-[4-Amino-7-(1-isopropyl-piperidin-4-yl)-7H-pyrrolo[2,3-d]pyrimidin-5-yl]-2-fluoro-phenyl}-4-methoxy-3-methyl-benzenesulfonamide] |
